Experimental data published in patent publication US7674793B2, “Tricyclic dihydropyrazines as potassium channel openers” (Janssen Pharmaceutica NV, priority 2006, dated 2010).

Target: T1, KATP channels (Homo sapiens, UniProt O60706+Q14654)
T1 construct: TE671 human medulloblastoma cells were obtained from ATCC; host or cells: TE671 human medulloblastoma cells
Assay: Potassium Channel Assay (FLIPR membrane potential dye, TE671 cells)
Assay type: cell-based
Set-up: key: Active: A compound was designated as active if it produced greater than or equal to 10% response at 30 μM; Inactive: A compound was designated as inactive if it produced less than 10% response at 30 μM
Details: percent response at 30 μM; TE671 human medulloblastoma cells; hyperpolarization seen as decrease in fluorescent intensity, room temperature
Method: TE671 human medulloblastoma cells were obtained from ATCC and grown in Dulbecco's modified Eagle's medium (DMEM) supplemented with 10% fetal bovine serum, 100 U/ml penicillin and 100 U/ml streptomycine.
The day before testing, the cells were plated in black 96-well plates at 50 K/well. On the day of testing, the growth media was removed, then 100 μl of FLIPR buffer (20 mM HEPES, 120 mM NaCl, 2 mM KCl, 2 mM CaCl2, 1 mM MgCl2, 5 mM Glucose) and 100 μl of Membrane Potential Assay Dye (Molecular Devices) dissolved in FLIPR buffer were added to each well. The cells were incubated at room temperature for 15 to 30 min.
The effect of test compounds on KATP channels were evaluated on a fluorometric imaging plate reader (FLIPR, Molecular Devices) at room temperature. After a baseline period, 50 μl of 5× stock solution of test compound prepared in FLIPR buffer was added and fluorescent change was monitored for 3 minutes. After this reading, glyburide, a KATP channel blocker, was added to a final concentration of 5 μM to check the specificity of the test compound as a KATP channel openers. Hyperpolarization resulting from KATP channel opening was observed as a decrease in fluorescent intensity.
Representative compounds of the present invention were tested according to the procedure described above, with results as listed in Table BIO1 below. Test compound activity was determined as the percent. A compound was designated as active if it produced greater than or equal to 10% response at 30 μM.

T1 sequence (O60706 1-1549 isoform O60706-2): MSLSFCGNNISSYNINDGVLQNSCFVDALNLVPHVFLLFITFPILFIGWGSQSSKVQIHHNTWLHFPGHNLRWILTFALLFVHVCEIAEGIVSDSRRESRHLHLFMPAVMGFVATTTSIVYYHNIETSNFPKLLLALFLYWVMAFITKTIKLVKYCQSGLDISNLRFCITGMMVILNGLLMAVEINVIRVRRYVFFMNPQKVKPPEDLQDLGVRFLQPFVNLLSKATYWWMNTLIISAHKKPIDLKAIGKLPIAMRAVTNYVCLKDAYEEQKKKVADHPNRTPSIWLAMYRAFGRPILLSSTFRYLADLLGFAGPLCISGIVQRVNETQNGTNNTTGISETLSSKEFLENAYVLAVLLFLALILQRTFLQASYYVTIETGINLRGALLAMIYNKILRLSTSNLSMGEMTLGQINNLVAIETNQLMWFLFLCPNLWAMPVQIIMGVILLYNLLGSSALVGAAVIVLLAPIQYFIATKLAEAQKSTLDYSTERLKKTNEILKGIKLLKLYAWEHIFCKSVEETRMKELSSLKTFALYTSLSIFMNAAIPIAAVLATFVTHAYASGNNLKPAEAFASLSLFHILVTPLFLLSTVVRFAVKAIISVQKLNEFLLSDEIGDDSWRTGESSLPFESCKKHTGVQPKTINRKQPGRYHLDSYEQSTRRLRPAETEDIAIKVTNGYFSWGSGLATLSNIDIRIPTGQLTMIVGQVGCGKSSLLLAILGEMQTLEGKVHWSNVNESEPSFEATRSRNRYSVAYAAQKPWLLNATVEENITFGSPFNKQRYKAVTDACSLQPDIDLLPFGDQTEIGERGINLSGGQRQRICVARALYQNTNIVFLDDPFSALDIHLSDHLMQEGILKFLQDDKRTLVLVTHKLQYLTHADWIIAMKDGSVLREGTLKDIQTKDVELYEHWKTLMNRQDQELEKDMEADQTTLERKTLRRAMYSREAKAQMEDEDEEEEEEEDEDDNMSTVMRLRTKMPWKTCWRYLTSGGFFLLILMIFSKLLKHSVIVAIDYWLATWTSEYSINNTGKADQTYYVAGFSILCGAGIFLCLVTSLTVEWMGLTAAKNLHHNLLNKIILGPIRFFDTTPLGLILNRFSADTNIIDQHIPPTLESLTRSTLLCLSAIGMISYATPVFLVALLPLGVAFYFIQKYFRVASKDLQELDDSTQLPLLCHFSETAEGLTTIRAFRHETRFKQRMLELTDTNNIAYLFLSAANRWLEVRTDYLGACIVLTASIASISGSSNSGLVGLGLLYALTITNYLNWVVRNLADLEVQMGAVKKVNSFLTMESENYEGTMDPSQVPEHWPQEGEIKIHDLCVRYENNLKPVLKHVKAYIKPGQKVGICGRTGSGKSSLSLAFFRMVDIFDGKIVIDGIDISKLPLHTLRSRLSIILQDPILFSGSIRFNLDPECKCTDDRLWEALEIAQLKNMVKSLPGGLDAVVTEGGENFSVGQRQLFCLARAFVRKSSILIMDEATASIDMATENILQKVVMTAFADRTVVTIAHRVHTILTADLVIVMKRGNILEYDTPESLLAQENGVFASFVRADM
T1 sequence (Q14654 whole entry): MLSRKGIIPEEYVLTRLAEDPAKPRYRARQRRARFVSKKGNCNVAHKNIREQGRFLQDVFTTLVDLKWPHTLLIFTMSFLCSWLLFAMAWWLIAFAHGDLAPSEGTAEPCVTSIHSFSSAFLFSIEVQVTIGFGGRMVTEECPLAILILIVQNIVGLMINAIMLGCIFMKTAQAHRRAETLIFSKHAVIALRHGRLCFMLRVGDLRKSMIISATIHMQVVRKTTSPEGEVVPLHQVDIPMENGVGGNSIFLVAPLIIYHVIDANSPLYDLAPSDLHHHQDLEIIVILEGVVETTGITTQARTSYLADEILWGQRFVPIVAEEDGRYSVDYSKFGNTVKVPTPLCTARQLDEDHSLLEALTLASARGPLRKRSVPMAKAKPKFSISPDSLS

Row | Response | Structure (SMILES)
1 | Active | O=C1CCCC(O)=C1N(C1=C(O)CCCC1=O)c1ccc(F)c(F)c1 [compound 2]
2 | Active | O=C1CCCC(O)=C1N(C1=C(O)CCCC1=O)c1cccc(I)c1 [compound 3]
3 | Active | N#Cc1cccc(N(C2=C(O)CCC2=O)C2=C(O)CCC2=O)c1 [compound 5]
